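A five-concentration, 48-hour dose response in 96-well plates underlies each endpoint, interpolated linearly between surrounding concentrations. TGI: total growth inhibition.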
Tests used:
Test in all cases: NCI anticancer screen, dose series, 48 h
UACC-257 melanoma = tested on: UACC-257 melanoma
CCRF-CEM leukemia = tested on: CCRF-CEM leukemia
COLO 205 colon = tested on: COLO 205 colon
MDA-MB-231 breast = tested on: MDA-MB-231 breast
SF-268 CNS = tested on: SF-268 CNS
PC-3 prostate = tested on: PC-3 prostate
NCI-H23 lung = tested on: NCI-H23 lung
KM12 colon = tested on: KM12 colon
RXF 393 renal = tested on: RXF 393 renal
MDA-N = tested on: MDA-N
T-47D breast = tested on: T-47D breast
HOP-62 NSCLC = tested on: HOP-62 NSCLC
ACHN renal = tested on: ACHN renal
SK-MEL-5 melanoma = tested on: SK-MEL-5 melanoma
OVCAR-3 ovarian = tested on: OVCAR-3 ovarian
U251 CNS = tested on: U251 CNS
SF-539 CNS = tested on: SF-539 CNS
A498 renal = tested on: A498 renal
UO-31 renal = tested on: UO-31 renal
IGROV1 ovarian = tested on: IGROV1 ovarian
HL-60(TB) leukemia = tested on: HL-60(TB) leukemia
EKVX NSCLC = tested on: EKVX NSCLC
NCI-H226 lung = tested on: NCI-H226 lung
BT-549 breast = tested on: BT-549 breast
MDA-MB-435 = tested on: MDA-MB-435
A549 NSCLC = tested on: A549 NSCLC
HOP-92 NSCLC = tested on: HOP-92 NSCLC
MCF7 breast = tested on: MCF7 breast
MOLT-4 leukemia = tested on: MOLT-4 leukemia
HS 578T breast = tested on: HS 578T breast
SK-MEL-2 melanoma = tested on: SK-MEL-2 melanoma
SN12C renal = tested on: SN12C renal
OVCAR-4 ovarian = tested on: OVCAR-4 ovarian
M14 melanoma = tested on: M14 melanoma
CAKI-1 renal = tested on: CAKI-1 renal
NCI/ADR-RES ovarian = tested on: NCI/ADR-RES ovarian
SW-620 colon = tested on: SW-620 colon
UACC-62 melanoma = tested on: UACC-62 melanoma
SK-OV-3 ovarian = tested on: SK-OV-3 ovarian
OVCAR-8 ovarian = tested on: OVCAR-8 ovarian
TK-10 renal = tested on: TK-10 renal
SNB-19 CNS = tested on: SNB-19 CNS
HCT-15 colon = tested on: HCT-15 colon
NCI-H460 lung = tested on: NCI-H460 lung
SF-295 CNS = tested on: SF-295 CNS
HT29 colon = tested on: HT29 colon
LOX IMVI melanoma = tested on: LOX IMVI melanoma
HCT-116 colon = tested on: HCT-116 colon
OVCAR-5 ovarian = tested on: OVCAR-5 ovarian
DU-145 prostate = tested on: DU-145 prostate
SK-MEL-28 melanoma = tested on: SK-MEL-28 melanoma
786-0 renal = tested on: 786-0 renal
NCI-H522 lung = tested on: NCI-H522 lung
SNB-75 CNS = tested on: SNB-75 CNS

Work on CC(C)Oc1c(C2(c3ccccc3)SCCCS2)c(=O)c1=O yielded a TGI (UACC-257 melanoma) of over 100 µM, a TGI (CCRF-CEM leukemia) of over 100 µM and a TGI (COLO 205 colon) of over 100 µM. The TGI (MDA-MB-231 breast) was over 100 µM, the TGI (SF-268 CNS) was over 100 µM and the TGI (PC-3 prostate) was over 100 µM. The TGI (NCI-H23 lung) was over 100 µM, the TGI (KM12 colon) was over 100 µM and the TGI (RXF 393 renal) was over 100 µM. The TGI (MDA-N) was over 100 µM, the TGI (T-47D breast) was over 100 µM and the TGI (HOP-62 NSCLC) was over 100 µM. For the same molecule, the TGI (ACHN renal) was over 100 µM, the TGI (SK-MEL-5 melanoma) was over 100 µM and the TGI (OVCAR-3 ovarian) was over 100 µM. It also gave a TGI (U251 CNS) of over 100 µM, a TGI (SF-539 CNS) of over 100 µM and a TGI (A498 renal) of over 100 µM. For the same molecule, the TGI (UO-31 renal) was over 100 µM, the TGI (IGROV1 ovarian) was over 100 µM and the TGI (HL-60(TB) leukemia) was over 100 µM. For the same molecule, the TGI (EKVX NSCLC) was over 100 µM, the TGI (NCI-H226 lung) was over 100 µM and the TGI (BT-549 breast) was over 100 µM. For the same molecule, the TGI (MDA-MB-435) was over 100 µM, the TGI (A549 NSCLC) was over 100 µM and the TGI (HOP-92 NSCLC) was over 100 µM. For the same molecule, the TGI (MCF7 breast) was over 100 µM, the TGI (MOLT-4 leukemia) was over 100 µM and the TGI (HS 578T breast) was over 100 µM. The TGI (SK-MEL-2 melanoma) was over 100 µM, the TGI (SN12C renal) was over 100 µM and the TGI (OVCAR-4 ovarian) was over 100 µM. It also gave a TGI (M14 melanoma) of over 100 µM, a TGI (CAKI-1 renal) of over 100 µM and a TGI (NCI/ADR-RES ovarian) of over 100 µM. For the same molecule, the TGI (SW-620 colon) was over 100 µM, the TGI (UACC-62 melanoma) was over 100 µM and the TGI (SK-OV-3 ovarian) was over 100 µM. It also gave a TGI (OVCAR-8 ovarian) of over 100 µM, a TGI (TK-10 renal) of over 100 µM and a TGI (SNB-19 CNS) of over 100 µM. For the same molecule, the TGI (HCT-15 colon) was over 100 µM, the TGI (NCI-H460 lung) was over 100 µM and the TGI (SF-295 CNS) was over 100 µM. It also gave a TGI (HT29 colon) of over 100 µM, a TGI (LOX IMVI melanoma) of over 100 µM and a TGI (HCT-116 colon) of over 100 µM. It also gave a TGI (OVCAR-5 ovarian) of over 100 µM, a TGI (DU-145 prostate) of over 100 µM and a TGI (SK-MEL-28 melanoma) of over 100 µM. The TGI (786-0 renal) was over 100 µM, the TGI (NCI-H522 lung) was 97.3 µM and the TGI (SNB-75 CNS) was over 100 µM.

Source: PubChem BioAssay (NCI)
